{
  "source": "paper PMC11869522",
  "about": "“Competitive displacement of lipoprotein lipase from heparan sulfate is orchestrated by a disordered acidic cluster in GPIHBP1” (Journal of Lipid Research, 2025)",
  "key": {"bLPL": {"test_system": "bLPL", "assay": "Lipase activity assay, protection against spontaneous LPL inactivation", "format": "biochemical, bovine", "details": "15 nM bLPL preincubated 20 min at 22°C with 1 μM synthetic peptide; Intralipid substrate, NEFA release 25 min; triplicates", "method": "To determine lipase activity, 90 μl incubation mixture containing 166 mM NaCl, 28 U/ml heparin, 10% (w/v) fatty acid-free serum albumin, 250 mM Tris-HCl (pH 8.5), 0.16% intralipid, and 6% (v/v) chicken serum was mixed with 60 μl of sample buffer consisting of 150 mM NaCl, 0.1% (w/v) fatty acid-free serum albumin, 0.01% (v/v) Triton X-100, 10 mM HEPES (pH 7.4) and 15 nM bLPL. After 25 min incubation, non-esterified fatty acids (NEFA) released by LPL were quantified using the NEFA-HR kit according to manufacturer protocol (Wako Chemicals).\nTo address this question, we preincubated 15 nM purified bLPL for 20 min in the presence of 1 μM of synthetic peptides with different chain lengths and covering distinct regions of the first 33 residues in GPIHBP1 (supplemental Table S1). The residual bLPL activity was subsequently assessed by quantifying the release of non-esterified free fatty acids after a 25-min incubation with a lipid substrate emulsion (Intralipid) using the NEFA2-kit. […]\nFig. 2 LPL activity after incubation with synthetic peptides covering the acidic tail of GPIHBP^1–33 Purified bLPL (15 nM) was preincubated either alone or in the presence of 1 μM synthetic peptides or 150 nM GPIHBP1 for 20 min in 10 mM HEPES, 150 mM NaCl pH 7.4 at 22°C before LPL activity was assessed using Intralipid® as substrate. […]"}, "[1]": {"test_system": "hLPL bound to immobilized heparan sulfate", "assay": "GPIHBP1-mediated extraction of LPL from HSPGs (SPR, immobilized heparin dp4 fragments)", "format": "binding, human", "details": "12.5–200 nM GPIHBP1 proteins, 0.1–1.6 μM sulfated GPIHBP1^1–33, or GPIHBP1^34–131 with 1 μM sulfated GPIHBP1^1–33", "text": "To mimic electrostatic conditions found in the sub-endothelial spaces where surface-bound heparan-sulfate proteoglycans (HSPGs) are abundant, we designed a surrogate sensor surface using a streptavidin-coated CM5 sensor chip to capture high densities of biotinylated synthetic heparin dp4 fragments ([28], [29]). The reference surface was loaded with a neutral and non-sulfated fragment (M09 S00 from Iduron), while the active surface was loaded with a negatively charged fragment (M09 S08a from Iduron) containing N- and O-6-linked sulfations on each of the […] glucosamine residues in the DP4 fragment. Only the highly sulfated oligosaccharide bound LPL, and those interactions were transient with high off-rates. Despite the very transient nature of this binding, we created a stable reservoir of hLPL on the sensor surface by combining the fast kinetics of polyelectrolyte interactions with severe mass transport limitation—the latter phenomenon impedes LPL escape from the surface due to the fast rebinding that is favored by the high densities of immobilized heparin fragments (300 fmol/mm^2). For each experiment, 12.5 nM hLPL was loaded for 100 s at a flow rate of 20 μl/min in 10 mM Hepes (pH 7.4), 150 mM NaCl, 4 mM CaCl2, 10% (vol/vol) glycerol, 0.05% (vol/vol) surfactant P20, 1 mg/ml defatted BSA, […], and 0.05% (wt/vol) NaN3.\nTo compare the ability of GPIHBP1^1–131 and its charge variants to bind and extract hLPL from this dynamic reservoir, we injected twofold serial dilutions of 1.25–200 nM GPIHBP1^1–131; 1.25–200 nM GPIHBP1^Cluster1-neutral; GPIHBP1^Cluster2-neutral; 1.25–200 nM GPIHBP1^34–131; 0.1–1.6 μM GPIHBP1^1–33 with Tyr^18–SO4; or 1.25–200 nM GPIHBP1^34–131 in the presence of 1 μM sulfated GPIHBP1^1–33 for 250 s at 20 μl/min in 10 mM Hepes (pH 7.4), 150 mM NaCl, 4 mM CaCl2, 10% (vol/vol) glycerol, 0.05% (vol/vol) surfactant P20, 0.2 mg/ml fatty acid-free BSA, and 0.05% (wt/vol) NaN3. At the end of each cycle, two consecutive injections of 10 μl 3 M guanidinium chloride regenerated the chip.\nGPIHBP1’s ability to displace LPL from its HSPG-bound state in the sub-endothelial spaces is essential for the trans-endothelial trafficking of LPL to the luminal surface of capillary cells ([29]). The importance of the acidic tail in this process is supported by solid evidence from surrogate in vitro models and in vivo studies in gene-edited mice ([28], [29]). It was therefore important to determine the relative impact of the two charge-clusters in GPIHBP1 on their ability to disrupt LPL•HSPG interactions. To gain this insight, we measured the ability of different GPIHBP1 charge variants to displace hLPL from a SPR sensor chip surface coupled with a high density of immobilized small heparin-like fragments ([28]). […]"}},
  "data": [
    {"substance": "GPIHBP1^1–33: Synthetic peptide representing the N-terminal acidic tail of GPIHBP1, first 33 residues (QTQQEEEEEDEDHGPDDYDEEDEDEVEEEETNR; UniProt Q8IV16 21-53, looked up, fragment)", "values": [
      {"measurement": "preserving bLPL activity against spontaneous inactivation", "setting": "bLPL", "result": "as efficient as 150 nM GPIHBP1^1–131"},
      {"measurement": "competitive displacement of HSPG-bound hLPL (in words)", "setting": "[1]", "result": "neither GPIHBP1^34–131 nor GPIHBP1^1–33 alone, or in combination, induced any detachment of LPL"}
    ]}
  ]
}
